Where a SMILES comes first, the peptide text is derived from it. Bridges are numbered along the chain shown (N, C = ends). [ ]: non-standard residue; d: D form. 2Nal = N[C@@H](Cc1ccc2ccccc2c1)C(=O)O; Pip = O=C(O)[C@@H]1CCCCN1; NMeA = CN[C@@H](C)C(=O)O; Sar = CNCC(=O)O
What was measured:
[1] = 2D NMR structural score versus reference peptide; type: physicochemical; set-up: key to Struct. Score: +++ indicates the peptide is structured similarly to IGE063 (SEQ ID NO:49); + indicates the peptide is structured similarly to IGE063 (SEQ ID NO:49), but is less stable; −/+ indicates the peptide has some elements of stable structure, but the conformation differs from the reference structure (e.g., a different turn type is evident); − indicates the peptide is predominantly unstructured in aqueous solution; conditions: reference IGE063
Procedure: Peptides were evaluated by 2D NMR spectroscopy to assess the effect of substitutions on the three-dimensional structure of the peptide analog. All peptides with a structural score indicated in Table 5 were analyzed by 2D NMR spectroscopy; backbone ^1H resonances were assigned and ^3JHN-Hα coupling constants were measured and compared to the reference peptide (IGE063, SEQ ID NO:49; see Example 5). Peptides are defined to be of similar structure to the reference peptide provided chemical shifts, coupling constants, and NOEs are consistent with that structure.
A structural score was assigned to peptides analyzed by 2D NMR spectroscopy. For each of these peptides, backbone ^1H resonances have been assigned, and the ^3JHN-Ha coupling constants have been measured and compared to the reference peptide (i.e., IGE134 (SEQ ID NOS:155, 171)). Peptides are defined to be of similar structure to the reference peptide provided. chemical shifts, coupling constants, and NOEs are consistent with that structure.

[2] = biological target: T1, alpha subunit of the human FcεRI receptor (Homo sapiens, UniProt P12319); experiment: cell-based 125I-IgE binding inhibition assay on CHO FcεRI+ cells
T1 construct: expressed in transfected cells; host or cells: Chinese hamster ovary (CHO FcεRI+) cells
T1 sequence (P12319 26-257): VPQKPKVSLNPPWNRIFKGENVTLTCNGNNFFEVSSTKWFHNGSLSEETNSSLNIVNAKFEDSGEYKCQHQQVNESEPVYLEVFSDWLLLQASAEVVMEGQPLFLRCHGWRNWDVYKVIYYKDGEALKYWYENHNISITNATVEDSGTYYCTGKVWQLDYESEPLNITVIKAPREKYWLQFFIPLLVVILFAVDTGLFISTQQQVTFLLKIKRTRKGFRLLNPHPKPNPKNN
Procedure: . The following day the cells were rinsed three times with PBS and then once with F12/DMEM. Peptide stocks were reconstituted in 100 mM Hepes buffered water, pH 7.2, at a concentration of 5 mg/mL. Working concentrations of the peptide were diluted in assay buffer (see below). 75 ul, of a desired concentration of peptide was added to the top row of a separate 96 well microtiter plate and serially diluted 1:3 in 50 uL of the assay buffer (F12/DMEM, 1% BSA, 0.05% NaN3 and […] Hepes pH 7.2). Starting concentrations ranged from 50-500 uM. Next, 50 uL of the diluted peptide was transferred to the 96 microtiter well plate containing a monolayer of CHO FcεRI+ cells. After a 1 hour incubation at room temperature, 50 uL of ^125I-IgE (1.5 nM) was added to each well and incubated for an additional 45-60 minutes at 4° C. followed by 5 washes with 200 uL of assay buffer. Cells were solubilized with 200 uL of 1 N NaOH and transferred to a 96 microtiter tube for counting in a gamma counter to determine counts bound. The data were plotted using KaleidaGraph 3.0 and fitted using 4-parameter fits. IC50 values were determined for each peptide.
Six peptides based on selected clones from library #516 were synthesized and assayed for the ability to inhibit the binding of ^125I-IgE to a Chinese hamster ovary cell line expressing the alpha subunit of the IgE high affinity receptor, FcεRI. The peptides were synthesized as nine residue monomers and oxidized to allow the formation of a disulfide bridge resulting in a cyclic peptide. The size of each peptide was confirmed by mass spectrometry.

SMILES	Struct. Score [1]	fold improvement over the EIQECTEGPWGWFCVGSG peptide [2] [fold]	fold improvement over the MGTLCLEGPEGWFCIESA peptide [2]
CSCC[C@H](NC(=O)[C@@H]1CSSC[C@H](NC(=O)[C@H](CCCNC(=N)N)NC(=O)[C@@H]2CCCN2C(=O)[C@H](CC(C)C)NC(=O)[C@H](CC(N)=O)NC(C)=O)C(=O)N[C@@H]([C@@H](C)O)C(=O)N[C@@H](CCC(=O)O)C(=O)NCC(=O)N2CCC[C@H]2C(=O)N[C@@H](CCCCN)C(=O)NCC(=O)N[C@@H](Cc2c[nH]c3ccccc23)C(=O)N[C@@H](C(C)C)C(=O)N1)C(=O)N[C@@H](C)C(=O)N[C@@H](CC(=O)O)C(=O)N[C@@H](CC(=O)O)C(N)=O [IGE032, Ac-NLPRCTEGPKGWVCMADD-nh2] (Ac-NLPRCTEGPKGWVCMADD-NH2; disulfide 5-14)	+++		
CSCC[C@H](NC(=O)[C@@H]1CSSC[C@H](NC(=O)[C@H](CCCNC(=N)N)NC(=O)[C@@H]2CCCN2C(=O)[C@H](CC(C)C)NC(=O)[C@@H](N)CC(N)=O)C(=O)N[C@@H]([C@@H](C)O)C(=O)N[C@@H](CCC(=O)O)C(=O)NCC(=O)N2CCC[C@@H]2C(=O)N[C@@H](Cc2c[nH]c3ccccc23)C(=O)NCC(=O)N[C@@H](Cc2c[nH]c3ccccc23)C(=O)N[C@@H](C(C)C)C(=O)N1)C(=O)O [IGE071, NLPRCTEGpWGWVCM] (H-NLPRCTEG[dP]WGWVCM-OH; disulfide 5-14; N-terminus and C-terminus assumed)	−/+		
CSCC[C@H](NC(=O)[C@@H]1CSSC[C@H](NC(=O)[C@H](CCCNC(=N)N)NC(=O)[C@@H]2CCCN2C(=O)[C@H](CC(C)C)NC(=O)[C@@H](N)CC(N)=O)C(=O)N[C@@H]([C@@H](C)O)C(=O)N[C@@H](CCC(=O)O)C(=O)NCC(=O)N2CCC[C@H]2C(=O)N[C@@H](C)C(=O)NCC(=O)N[C@@H](Cc2c[nH]c3ccccc23)C(=O)N[C@@H](C(C)C)C(=O)N1)C(=O)O [IGE072, NLPRCTEGPAGWVCM] (H-NLPRCTEGPAGWVCM-OH; disulfide 5-14; N-terminus and C-terminus assumed)	+++		
CSCC[C@H](NC(=O)[C@@H]1CSSC[C@H](NC(=O)[C@H](CCCNC(=N)N)NC(=O)[C@@H]2CCCN2C(=O)[C@H](CC(C)C)NC(=O)[C@@H](N)CC(N)=O)C(=O)N[C@@H]([C@@H](C)O)C(=O)N[C@@H](CCC(=O)O)C(=O)NCC(=O)N2CCC[C@H]2C(=O)N[C@@H](Cc2c[nH]c3ccccc23)C(=O)NCC(=O)N[C@@H](Cc2c[nH]c3ccccc23)C(=O)N[C@@H](Cc2ccc(O)cc2)C(=O)N1)C(=O)O [IGE077, NLPRCTEGPWGWYCM] (H-NLPRCTEGPWGWYCM-OH; disulfide 5-14; N-terminus and C-terminus assumed)	+++		
CC(C)C[C@H](NC(=O)[C@@H](N)CC(N)=O)C(=O)N1CCC[C@H]1C(=O)N[C@@H](CCCNC(=N)N)C(=O)N[C@H]1CSSC[C@@H](C(N)=O)NC(=O)[C@H](C(C)C)NC(=O)[C@H](Cc2c[nH]c3ccccc23)NC(=O)CNC(=O)[C@H](Cc2c[nH]c3ccccc23)NC(=O)[C@@H]2CCCN2C(=O)CNC(=O)[C@H](CCC(=O)O)NC(=O)[C@H]([C@@H](C)O)NC1=O [IGE091, NLPRCTEGPWGWVC-nh2] (H-NLPRCTEGPWGWVC-NH2; disulfide 5-14)	+++		
CSCC[C@H](NC(=O)[C@@H]1CSSC[C@H](NC(=O)[C@H](CCCNC(=N)N)NC(=O)[C@@H]2CCCN2C(=O)[C@H](CC(C)C)NC(=O)[C@H](CC(N)=O)NC(C)=O)C(=O)N[C@@H]([C@@H](C)O)C(=O)N[C@@H](CCC(=O)O)C(=O)NCC(=O)N2CCCC[C@H]2C(=O)N[C@@H](Cc2c[nH]c3ccccc23)C(=O)NCC(=O)N[C@@H](Cc2c[nH]c3ccccc23)C(=O)N[C@@H](C(C)C)C(=O)N1)C(=O)O [IGE095, Ac-NLPRCTEG(Pip)WGWVCM] (Ac-NLPRCTEG[Pip]WGWVCM-OH; disulfide 5-14; C-terminus assumed)	+++		
CSCC[C@H](NC(=O)[C@@H]1CSSC[C@H](NC(=O)[C@H](CCCNC(=N)N)NC(=O)[C@@H]2CCCN2C(=O)[C@H](CC(C)C)NC(=O)[C@H](CC(N)=O)NC(C)=O)C(=O)N[C@@H]([C@@H](C)O)C(=O)N[C@@H](CCC(=O)O)C(=O)NCC(=O)N(C)[C@@H](C)C(=O)N[C@@H](Cc2c[nH]c3ccccc23)C(=O)NCC(=O)N[C@@H](Cc2c[nH]c3ccccc23)C(=O)N[C@@H](C(C)C)C(=O)N1)C(=O)O [IGE096, Ac-NLPRCTEG(N-Me-A)WGWVCM] (Ac-NLPRCTEG[NMeA]WGWVCM-OH; disulfide 5-14; C-terminus assumed)	+++		
CSCC[C@H](NC(=O)[C@@H]1CSSC[C@H](NC(=O)[C@H](CCCNC(=N)N)NC(=O)[C@@H]2CCCN2C(=O)[C@H](CC(C)C)NC(=O)[C@H](CC(N)=O)NC(C)=O)C(=O)N[C@@H]([C@@H](C)O)C(=O)N[C@@H](CCC(=O)O)C(=O)NCC(=O)N(C)CC(=O)N[C@@H](Cc2c[nH]c3ccccc23)C(=O)NCC(=O)N[C@@H](Cc2c[nH]c3ccccc23)C(=O)N[C@@H](C(C)C)C(=O)N1)C(=O)O [IGE097, Ac-NLPRCTEG(N-Me-G)WGWVCM] (Ac-NLPRCTEG[Sar]WGWVCM-OH; disulfide 5-14; C-terminus assumed)	−/+		
CSCC[C@H](NC(=O)[C@@H]1CSSC[C@H](NC(=O)[C@H](CCCNC(=N)N)NC(=O)[C@@H]2CCCN2C(=O)[C@H](CC(C)C)NC(=O)[C@H](CC(N)=O)NC(C)=O)C(=O)N[C@@H]([C@@H](C)O)C(=O)N[C@@H](CCC(=O)O)C(=O)NCC(=O)N2CCC[C@H]2C(=O)N[C@@H](Cc2ccc3ccccc3c2)C(=O)NCC(=O)N[C@@H](Cc2c[nH]c3ccccc23)C(=O)N[C@@H](C(C)C)C(=O)N1)C(=O)O [IGE103, Ac-NLPRCTEGP(npA)GWVCM] (Ac-NLPRCTEGP[2Nal]GWVCM-OH; disulfide 5-14; C-terminus assumed)	+++		
CSCC[C@H](NC(=O)[C@H]1CSSC[C@H](NC(=O)[C@H](CCCNC(=N)N)NC(=O)[C@@H]2CCCN2C(=O)[C@H](CC(C)C)NC(=O)[C@H](CC(N)=O)NC(C)=O)C(=O)N[C@@H]([C@@H](C)O)C(=O)N[C@@H](CCC(=O)O)C(=O)NCC(=O)N2CCC[C@H]2C(=O)N[C@@H](Cc2c[nH]c3ccccc23)C(=O)NCC(=O)N[C@@H](Cc2c[nH]c3ccccc23)C(=O)N[C@@H](C(C)C)C(=O)N1)C(=O)O [IGE104, Ac-NLPRCTEGPWGWVcM] (Ac-NLPRCTEGPWGWV[dC]M-OH; disulfide 5-14; C-terminus assumed)	−		
CSCC[C@H](NC(=O)[C@@H]1CSSC[C@H](NC(=O)[C@H](CCCNC(=N)N)NC(=O)[C@@H]2CCCN2C(=O)[C@H](CC(C)C)NC(=O)[C@H](CC(N)=O)NC(C)=O)C(=O)N[C@@H]([C@@H](C)O)C(=O)N[C@@H](CCC(=O)O)C(=O)NCC(=O)N2CCC[C@H]2C(=O)N[C@@H](Cc2c[nH]c3ccccc23)C(=O)N[C@H](C)C(=O)N[C@@H](Cc2c[nH]c3ccccc23)C(=O)N[C@@H](C(C)C)C(=O)N1)C(=O)O [IGE105, Ac-NLPRCTEGPWaWVCM] (Ac-NLPRCTEGPW[dA]WVCM-OH; disulfide 5-14; C-terminus assumed)	+++		
CSCC[C@H](NC(=O)[C@@H]1CSSC[C@H](NC(=O)[C@H](CCCNC(=N)N)NC(=O)[C@@H]2CCCN2C(=O)[C@H](CC(C)C)NC(=O)[C@@H](N)CC(N)=O)C(=O)N[C@@H]([C@@H](C)O)C(=O)N[C@@H](CCC(=O)O)C(=O)NCC(=O)N2CCC[C@H]2C(=O)N[C@@H](Cc2c[nH]c3ccccc23)C(=O)NCC(=O)N[C@@H](Cc2c[nH]c3ccccc23)C(=O)N[C@@H](C(C)C)C(=O)N1)C(=O)N[C@@H](C)C(=O)N[C@@H](C)C(=O)N[C@@H](CC(=O)O)C(=O)O [NLPRCTEGPWGWVCMAAD] (H-NLPRCTEGPWGWVCMAAD-OH; disulfide 5-14; N-terminus and C-terminus assumed)		40	greater than 160 fold

From patent US20040086942A1, “Ige receptor antagonists” (priority 2003, published 2004)
